Biological target: P. falciparum apicoplast DNA polymerase (Pf-apPOL) (Plasmodium falciparum, UniProt Q8ILY1)
Test: Fluorescence-based high-throughput DNA polymerase assay (molecular beacon), primary screen and dose-response
Format: biochemical
Conditions: for DNA Pol: 90 min, 10 µM
Experimental: The HT assay employs a molecular beacon, a stem-loop DNA template with a Cy3 dye and the Black Hole Quencher on the 3′ and 5′ ends of the DNA, respectively. Pf-apPOL concentration is based on a calculated absorptivity of ε280 = 56750 M^−1 cm^−1. Reactions were carried out at 25 °C, using Corning 3575 […] (well-volume, 20 µL). Assays testing for compound inhibition composed of reaction buffer (pH 7.9 in 50 mM potassium acetate, 20 mM Tris-acetate and 10 mM magnesium acetate), Pf-apPOL (20 nM), DNA substrate (20 nM), dNTPs (6 µM), and compound (10 µM in DMSO). The DNA and nucleotide substrates (dNTPs) were at concentrations of 20 nM and 6 µM, respectively, in the assay. Pf-apPOL was incubated in the reaction buffer with dNTPs and the compound of interest (10 µM, in the assay) at 25 °C for 10 min. The DNA substrate was then added and the reaction was allowed to proceed for 90 min at 25 °C.
Each assay plate contained 16 negative controls (no Pf-apPOL, DMSO present) and 16 positive controls (Pf-apPOL present, no DMSO). The fluorescence of each well was determined using a BioTek Synergy Neo fluorescence plate reader using excitation and emission wavelengths of 555 and 570 nm, respectively.
In the above, Min is the average of fluorescence emission of the negative controls (substrate only), Max the average fluorescence emission from the positive controls (enzyme + substrate), and Test the emission from the assays in the presence of compounds (enzyme + compound + substrates). […] […] The IC50 of each compound was determined using Equation (2): (2) IC50= Vmax/(1+ (I/IC50)^n)
In the above, n measures cooperativity, with n > 1 indicating synergistic binding of more than a single molecule of the compound.
To identify apPOL inhibitors we utilised our previously developed high-throughput DNA polymerase assay. The HT assay is based on a molecular beacon DNA template that forms a stem-loop with a Cy3 dye and the Black Hole Quencher on the 3′ and 5′ ends of the DNA, respectively. DNA polymerase activity extends an annealed primer through the stem region, displacing the fluorophore from the quencher, thereby increasing its fluorescence (Figure 1(A)). The assay accurately recapitulates the kinetic behaviour of apPOL, as measured through more conventional low-throughput gel-based assays. The Z′ factor for the assay described here was 0.9 across all plates (data not shown).
Figure 1. High-throughput screening. (A) The fluorescent-based DNA polymerase assay used to screen the compound libraries. The DNA template strand is a hairpin loop with a primer annealed to the loop. The 3’ end of the primer is 11 bases away from the 6 bp duplex. Strand displacement activity of the DNA polymerase separates the Cy3 dye from the Black hole quencher leading to an increase in fluorescent signal. (B) The high-throughput assay workflow. The DNA polymerase is incubated with […] compound for 10 min prior to addition of the hairpin substrate. The reaction is quenched at 3 different time points and the fluorescent signal is measured and % inhibition is determined using the provided equation.

Sequence of P. falciparum apicoplast DNA polymerase (Pf-apPOL) (Q8ILY1 entry or part of it): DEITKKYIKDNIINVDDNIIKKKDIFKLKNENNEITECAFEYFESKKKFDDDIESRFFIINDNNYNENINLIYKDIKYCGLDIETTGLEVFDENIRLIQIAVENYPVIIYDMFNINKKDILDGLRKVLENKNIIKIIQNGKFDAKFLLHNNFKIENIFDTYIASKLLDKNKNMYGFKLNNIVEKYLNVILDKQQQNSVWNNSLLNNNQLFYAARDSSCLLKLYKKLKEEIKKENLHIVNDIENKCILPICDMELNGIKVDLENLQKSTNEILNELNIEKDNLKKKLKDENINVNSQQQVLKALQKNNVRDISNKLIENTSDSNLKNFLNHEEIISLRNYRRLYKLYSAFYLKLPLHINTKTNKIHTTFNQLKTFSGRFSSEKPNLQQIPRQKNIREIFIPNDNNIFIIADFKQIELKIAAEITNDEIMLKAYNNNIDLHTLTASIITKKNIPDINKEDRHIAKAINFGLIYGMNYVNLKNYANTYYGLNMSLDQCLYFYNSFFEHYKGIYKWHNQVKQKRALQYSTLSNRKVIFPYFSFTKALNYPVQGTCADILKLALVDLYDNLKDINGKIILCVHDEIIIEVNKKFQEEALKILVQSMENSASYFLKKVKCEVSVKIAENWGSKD

For `O=[N+]([O-])c1cc2c(cc1CN1CCCCCC1)OCO2` [KU0004987], the “DNA Pol” value ('DNA Pol', screening value, unit not given) was 33, the “% inhibition Apo pol 10'” value (DRC-1, concentration 2.5) was 6.817% and the “% inhibition Apo pol 10'” value (DRC-1, concentration 5) was 8.194%. For the same compound, the “% inhibition Apo pol 10'” value (DRC-1, concentration 10) was 20.8655%, the “% inhibition Apo pol 10'” value (DRC-1, concentration 20) was 39.2503% and the “% inhibition Apo pol 10'” value (DRC-1, concentration 40) was 59.1088%. The “% inhibition Apo pol 10'” value (DRC-1, concentration 80) was 75.1762%, the “% inhibition Apol 90'” value (DRC-1, 90', concentration 2.5) was 1.395% and the “% inhibition Apol 90'” value (DRC-1, 90', concentration 5) was -0.8625%. The “% inhibition Apol 90'” value (DRC-1, 90', concentration 10) was 9.436%, the “% inhibition Apol 90'” value (DRC-1, 90', concentration 20) was 21.3205% and the “% inhibition Apol 90'” value (DRC-1, 90', concentration 40) was 39.3126%. The “% inhibition Apol 90'” value (DRC-1, 90', concentration 80) was 55.7488%, the “% inhibition apPOL 180'” value (DRC-1, 180', concentration 2.5) was -4.392% and the “% inhibition apPOL 180'” value (DRC-1, 180', concentration 5) was -7.266%. For the same compound, the “% inhibition apPOL 180'” value (DRC-1, 180', concentration 10) was 1.794%, the “% inhibition apPOL 180'” value (DRC-1, 180', concentration 20) was 10.6731% and the “% inhibition apPOL 180'” value (DRC-1, 180', concentration 40) was 27.0699%. The “% inhibition apPOL 180'” value (DRC-1, 180', concentration 80) was 43.7361%, the “% inhibition Apo pol 5'” value (DRC-2, 5', concentration 2.5) was 17% and the “% inhibition Apo pol 5'” value (DRC-2, 5', concentration 5) was 20%. For the same compound, the “% inhibition Apo pol 5'” value (DRC-2, 5', concentration 10) was 32%, the “% inhibition Apo pol 5'” value (DRC-2, 5', concentration 20) was 39% and the “% inhibition Apo pol 5'” value (DRC-2, 5', concentration 40) was 46%. The “% inhibition Apo pol 5'” value (DRC-2, 5', concentration 80) was 49%, the “% inhibition Apol 40'” value (DRC-2, 40', concentration 2.5) was 13% and the “% inhibition Apol 40'” value (DRC-2, 40', concentration 5) was 15%. The “% inhibition Apol 40'” value (DRC-2, 40', concentration 10) was 22%, the “% inhibition Apol 40'” value (DRC-2, 40', concentration 20) was 29% and the “% inhibition Apol 40'” value (DRC-2, 40', concentration 40) was 39%. For the same compound, the “% inhibition Apol 40'” value (DRC-2, 40', concentration 80) was 49%, the “% inhibition ApPOL 90'” value (DRC-2, 90', concentration 2.5) was 9% and the “% inhibition ApPOL 90'” value (DRC-2, 90', concentration 5) was 9%. For the same compound, the “% inhibition ApPOL 90'” value (DRC-2, 90', concentration 10) was 16%, the “% inhibition ApPOL 90'” value (DRC-2, 90', concentration 20) was 23% and the “% inhibition ApPOL 90'” value (DRC-2, 90', concentration 40) was 33%. The “% inhibition ApPOL 90'” value (DRC-2, 90', concentration 80) was 45%, the “% inhibition apPOL 180'” value (DRC-2, 180', concentration 2.5) was 0.644% and the “% inhibition apPOL 180'” value (DRC-2, 180', concentration 5) was 0.589%. The “% inhibition apPOL 180'” value (DRC-2, 180', concentration 10) was 6%, the “% inhibition apPOL 180'” value (DRC-2, 180', concentration 20) was 10% and the “% inhibition apPOL 180'” value (DRC-2, 180', concentration 40) was 22%. The “% inhibition apPOL 180'” value (DRC-2, 180', concentration 80) was 36%, the “% inhibition ApPOL 90'” value (conc 2.5 (unit not given), 90', DRC-2) was 9% and the “% inhibition ApPOL 90'” value (conc 5 (unit not given), 90', DRC-2) was 9%. The “% inhibition Apol 40'” value (conc 10 (unit not given), 40', DRC-2) was 22%, the “% inhibition Apo pol 5'” value (conc 20 (unit not given), 5', DRC-2) was 39% and the “% inhibition Apol 40'” value (conc 40 (unit not given), 40', DRC-2) was 39%. For the same compound, the “% inhibition apPOL 180'” value (conc 40 (unit not given), 180', DRC-2) was 22%, the “% inhibition Apo pol 5'” value (conc 80 (unit not given), 5', DRC-2) was 49% and the “% inhibition Apol 40'” value (conc 80 (unit not given), 40', DRC-2) was 49%. For the same compound, the “DNA Pol” value (primary screen hit value, DNA Pol (186 hits)) was 33.
